The source of these data is patent US9408924B2, “Bioconjugates of cyanine dyes” (LI-COR, INC., priority 2010, dated 2016).

The nature of data set [1]: Absorption and emission of the dye. The data set is classed as physicochemical. The procedure: Compound 9 (80 mg), 3-(2-carboxyethyl)phenylboronic acid (40 mg), and cesium carbonate (20 mg) were stirred into water (20 mL) under nitrogen at room temperature. Tetrakis(triphenylphosphine)palladium (0) (10 mg) were added to the reaction mixture. The mixture was refluxed for 4 h, and the solvent and volatile compounds then were evaporated under vacuum. The crude product was purified by flash chromatography on silica 60, 200-400 mesh, eluting with a 20/80 acetonitrile/water mixture. The purified compound 56 had λMeOH=680 nm, λPBS=672 nm, ε=160,000.
Fluorescence determinations were made at a fixed antibody concentration of 10 μg/mL in physiological buffer using dye-labeled goat anti-rabbit (GAR) conjugates prepared at LI-COR (FIGS. 13A-B and 14). A dye-labeled lactalbumin conjugate was also tested (FIG. 15).
20's absorbance and emission maximum is at 676 nm in aqueous solution and at 693 nm in methanol.

In the next data set the test system is U87GM cells. As to the kind of experiment: Plate-based evaluation of cell binding (on-cell Western). To be noted: <0.5 μM; in comparison to a specific targeted probe. The procedure:
Compound 10/RGD and 10/EGF were prepared to be used in conjunction with 10 to estimate relative non-specific binding of the dye relative to a labeled targeted agent. The on-cell Western was the format used and imaged on the Odyssey Sa.
In a plate-based evaluation of 10/RGD on U87GM cells, 10 was added to assess level of cell binding (FIG. 27).

Data set [2] in a line: In vivo clearance study of carboxylate 10. Also on record: species or system Nude mice. The protocol:
Nude mice were used for the clearance study with the carboxylate and for the targeted agent evaluation. A dose of 2 nmol 10 was administered intravenously (IV) via the tail vein of the mouse and serial imaged over the next 48 h with the Pearl Impulse imaging system. Excised organs were evaluated to assess organs with the highest retention.

In the next data set the test system is A431 subcutaneous tumors. The data set can be described thus: In vivo dose testing of 10/EGF. More on the design: species or system nude mice. To be noted: excised organs 48 h post injection. The procedure:
Testing for optimal dose in nude mice bearing A431 subcutaneous tumors was done. Four doses were tested: 0.5, 1, 2, and 3 nmoles. Two mice were used per treatment dosage. A431 tumor cells were implanted on the right hip and allowed to reach approximately 0.5 cm. FIG. 31 presents dorsal views of all animals under a common LUT.

Data set [3] relates to U87 tumor cells (integrins). The data set can be described thus: In vivo optical imaging with 10-labeled cyclo(RGDfK) probe. Also on record: species or system Mice. The procedure: The suitability of compound 10 for in vivo optical imaging was evaluated using an 10-labeled cyclo(Arg-Gly-Asp-D-Phe-Lys) (RGDfK) probe. This probe was specifically designed to target integrins. Integrins are cell surface heterodimeric glycoproteins important in cell adhesion and signal transduction. This receptor class is involved in tumor growth, tumor invasiveness, metastasis, tumor-induced angiogenesis, inflammation, osteoporosis, and rheumatoid arthritis.
Mice were implanted with U87 tumor cells. The animals were injected and imaged while the tumors were still extremely small. This provided a good test of how visible the tumors are over any background signal that the probe detected.
Tumors were excised, weighed, and imaged on a Pearl Imager (FIG. 3).

Data set [4] is described as follows: Photostability comparison on nitrocellulose membrane. It is filed as physicochemical. As to conditions: dye-labeled GAR on nitrocellulose; repeated Odyssey scans; normalized to time zero. The protocol: Test samples were prepared by spotting equimolar amounts of dye (i.e., goat anti-rabbit (GAR) secondary antibodies labeled with the appropriate dye) onto nitrocellulose membrane. The membrane was then scanned repeatedly on an Odyssey Infrared Imager, and the signal intensity was normalized to the control signal at time zero (FIG. 19A-B).

Turning to `CC1(C)C(/C=C/C(=C/C=C2/N(CCCS(=O)(=O)[O-])c3ccc(S(=O)(=O)[O-])cc3C2(C)C)c2cccc(CCC(=O)O)c2)=Nc2c1cc(Cl)c[n+]2CCCS(=O)(=O)[O-].[Na+].[Na+]` [Compound 10], in data set [1] (MeOH), the “Extinction Coefficient” value is listed as 170,000, the “Max. Abs.” value stood at 680 nm and the “Max. Emis.” value is reported as 694 nm. Also, in data set [1] (PBS), the “Extinction Coefficient” value was 160,000, the “Max. Abs.” value was 672 nm and the “Max. Emis.” value was determined as 694 nm. Further, the “level of cell binding” value in the data set with U87GM cells was “low levels of cell binding”. In addition, the “time of signal spike” value in data set [2] (2 nmol IV) is “about 1 hour”. Moreover, in data set [2] (2 nmol IV, 44 hr period), the “retention in the kidneys” value is given as “very little retention in the kidneys, if at all” and the route of clearance entry is given as “clears via the liver/gall bladder/intestinal tract”. Besides, in data set [2] (2 nmol IV, whole-image ROI), the “time by which total signal is dramatically reduced” value was at most 4 h. Also, in data set [2] (44 hr post injection, liver, heart, kidney, spleen, intestine, muscle, tumor), the “retention in excised organs” value was “very little retention of probe”. Also, in the data set on A431 subcutaneous tumors, the “signal from the tumor cells” value was “very little signal from the tumor cells”.

For `CC1(C)C(/C=C/C(=C/C=C2\N(CCCS(=O)(=O)[O-])c3ccc(S(=O)(=O)[O-])cc3C2(C)C)c2cccc(CCC(=O)NCCCC[C@@H]3NC(=O)[C@@H](Cc4ccccc4)NC(=O)[C@H](CC(=O)[O-])NC(=O)CNC(=O)[C@H](CCCNC(=N)N)NC3=O)c2)=Nc2c1cc(Cl)c[n+]2CCCS(=O)(=O)[O-].[Na+].[Na+].[Na+]` [Compound 21, Sodium 2-((2S,5R,8S,11S)-5-benzyl-8-(4-(3-(3-((1E,3Z,5Z)-1-(5-chloro-3,3-dimethyl-7-(3-sulfonatopropyl)-3H-pyrrolo[2,3-b]pyridin-7-ium-2-yl)-5-(3,3-dimethyl-5-sulfonato-1-(3-sulfonatopropyl)indolin-2-ylidene)penta-1,3-dien-3-yl)phenyl)propanamido)butyl)-11-(3-guanidinopropyl)-3,6,9,12,15-pentaoxo-1,4,7,10,13-pentaazacyclopentadecan-2-yl)acetate], the clearance and background entry in data set [3] (1 nmol) is recorded as “cleared the system without an undue level of background”. Moreover, in data set [3] (1 nmol intravenously, two tumor-bearing mice), the “time post-injection by which tumors were visible” value was at most 5 h. The detectability of tumors result in data set [3] (1 nmol, extremely small tumors (9 and 15 mg)) is recorded as “easily detectable”.

Turning to `C[Si](C)(CCC[N+](CCCS(=O)(=O)[O-])(CCCS(=O)(=O)[O-])CCCS(=O)(=O)[O-])O[Si]1(O[Si](C)(C)CCC[N+](CCCS(=O)(=O)[O-])(CCCS(=O)(=O)[O-])CCCS(=O)(=O)[O-])n2c3c4ccccc4c2N=C2N=C(N=c4c5ccccc5c(n41)=NC1=NC(=N3)c3ccccc31)c1cccc(OCCCOC(=O)NCCCCCC(=O)ON3C(=O)CCC3=O)c12.[Na+].[Na+].[Na+].[Na+]` (centres unmarked) [Compound 700DX], the “relative fluorescence on repeated scanning (photostability)” value in data set [4] is on record as “unchanged”.
